The assay concerns pituitaries. Briefly: In vitro growth hormone release study (rat pituitary incubation, GH radioimmunoassay). It is filed as cell-based. Particulars: pituitaries of 20 day old female rats, Δ of GH levels between I3, I4 and P2, ± SEM. As for the experimental part:
Female rats of the CD-1 strain were housed in a constant temperature room at 24° C. with 14 hours light and 10 hours darkness. The rats were fed Purina brand rat chow ab libitum.
All studies were started between 0800 and 1000 hours.
Pituitaries were removed from 20 day old female rats. Two pituitaries were incubated at 36° C. in 1 ml of lactated Ringer's solution in 10 ml polytetrafluoroethylene beakers in a Dubnoff Shaker (90 cycles/min.). The pituitaries were incubated a total of 4 hours (P1, P2, I3, and I4). After two successive one hour preincubation periods (P1, P2), the peptide was added to the incubation medium hourly for 2 hours (I3, I4).
This in vitro study was performed in triplicate and a standard radioimmunoassay of growth hormone present in the incubation medium was performed in duplicate. The hormonal activity was calculated as the difference (Δ) of growth hormone (GH) levels between I3, I4 and P2, i.e., (I3 -P2) and (I4 -P2). P values were calculated by Students' t test using six growth hormone values for each value recorded.
The growth hormone radioimmunoassay reagents were distributed by the National Institute of Arthritis and […] (NIAMDD) program. The growth hormone values were calculated in terms of nanograms (ng) of a rat standard with a growth hormone potency of 0.61 units/mg.

[1] abbreviates: peptide 0.1μg, P <0.001 unless otherwise noted.

Square brackets hold non-standard residues; d marks the D form. Peptide text beside a SMILES is read from it.

The record followed here is patent US4226857A, “Synthetic peptides having pituitary growth hormone releasing activity” (priority 1979, dated 1980).

Turning to `C[C@H](NC(=O)[C@@H](Cc1c[nH]c2ccccc12)NC(=O)[C@@H](N)Cc1ccc(O)cc1)C(=O)N[C@@H](Cc1c[nH]c2ccccc12)C(=O)N[C@H](Cc1ccccc1)C(N)=O` [H2 N--Tyr--D-Trp--Ala--Trp--D-Phe--CONH2, H2 N-Tyr-D-Trp-Ala-Trp-D-Phe-CONH2] (H-Y[dW]AW[dF]-NH2), the “In vitro growth hormone release (ΔGH)” value under setting [1] was 3409 ± 455 ngΔGH/ml incubation medium; the “In vitro growth hormone release (ΔGH)” value (peptide 0.3μg, P <0.001) is recorded as 4540 ± 1200 ngΔGH/ml incubation medium; the “In vitro growth hormone release (ΔGH)” value (peptide 1μg, P <0.001) was 4611 ± 510 ngΔGH/ml incubation medium; the “In vitro growth hormone release (ΔGH)” value (peptide 10μg, P <0.001) is 5000 ± 662 ngΔGH/ml incubation medium.

`NC(=O)[C@@H](Cc1ccccc1)NC(=O)[C@H](Cc1c[nH]c2ccccc12)NC(=O)[C@H](CO)NC(=O)[C@@H](Cc1c[nH]c2ccccc12)NC(=O)[C@@H](N)Cc1ccc(O)cc1` [H2 N--Tyr--D-Trp--Ser--Trp--D-Phe--CONH2, H2 N-Tyr-D-Trp-Ser-Trp-D-Phe-CONH2] (H-Y[dW]SW[dF]-NH2): the “In vitro growth hormone release (ΔGH)” value under setting [1] is reported as 353 ± 144 ngΔGH/ml incubation medium; the “In vitro growth hormone release (ΔGH)” value (peptide 1μg, P <0.001) is reported as 3119 ± 413 ngΔGH/ml incubation medium; the “In vitro growth hormone release (ΔGH)” value (peptide 10μg, P <0.001) is recorded as 3831 ngΔGH/ml incubation medium.
